According to the NIST ThermoML archive (doi:10.1021/je500918t):
± gives the expanded uncertainty stated by the source.

How the values were obtained:
[1] = Crystal; DTA
[2] = Molar enthalpy of transition or fusion; conditions: Crystal; DSC

Compound | Normal melting temperature [1] | Molar enthalpy of transition or fusion [2]
Nc1ccc(S(=O)(=O)Nc2ccccc2Cl)c(Cl)c1 [4-amino-2-chloro-N-(2-chlorophenyl)benzenesulfonamide] | 232 ± 0.5 °C | 12.3 ± 0.335 kcal/mol
Nc1ccc(S(=O)(=O)Nc2ccc(Cl)cc2)c(Cl)c1 [4-amino-2-chloro-N-(4-chlorophenyl)benzenesulfonamide] | 195.6 ± 0.5 °C | 8.34 ± 0.287 kcal/mol
Cc1cc(N)ccc1S(=O)(=O)Nc1ccccc1[N+](=O)[O-] [4-amino-2-methyl-N-(2-nitrophenyl)benzenesulfonamide] | 178.2 ± 0.5 °C | 9.56 ± 0.311 kcal/mol
CCN(CC)S(=O)(=O)c1ccc(N)cc1 [4-amino-N,N-diethylbenzenesulfonamide] | 105.7 ± 0.5 °C | 4.64 ± 0.263 kcal/mol
CN(C)S(=O)(=O)c1ccc(N)cc1 [4-amino-N,N-dimethylbenzenesulfonamide] | 171.5 ± 0.5 °C | 7.1 ± 0.287 kcal/mol
Nc1ccc(S(=O)(=O)N(c2ccccc2)c2ccccc2)cc1 [4-amino-N,N-diphenylbenzenesulfonamide] | 179.5 ± 0.5 °C | 8.39 ± 0.287 kcal/mol
Nc1ccc(S(=O)(=O)Nc2cccc(Cl)c2Cl)cc1 [4-amino-N-(2,3-dichlorophenyl)benzenesulfonamide] | 181.2 ± 0.5 °C | 9.78 ± 0.311 kcal/mol
Nc1ccc(S(=O)(=O)Nc2cc(Cl)c(Cl)cc2Cl)cc1 [4-amino-N-(2,4,5-trichlorophenyl)benzenesulfonamide] | 188.1 ± 0.5 °C | 9.49 ± 0.311 kcal/mol
Nc1ccc(S(=O)(=O)Nc2cc(Cl)ccc2Cl)cc1 [4-amino-N-(2,5-dichlorophenyl)benzenesulfonamide] | 172.8 ± 0.5 °C | 9.87 ± 0.311 kcal/mol
Nc1ccc(S(=O)(=O)Nc2ccc([N+](=O)[O-])cc2Br)cc1 [4-amino-N-(2-bromo-4-nitrophenyl)benzenesulfonamide] | 188 ± 0.5 °C | 9.46 ± 0.311 kcal/mol
Cc1ccc(NS(=O)(=O)c2ccc(N)cc2)c(Cl)c1 [4-amino-N-(2-chloro-4-methylphenyl)benzenesulfonamide] | 155.7 ± 0.5 °C | 7.58 ± 0.287 kcal/mol
Cc1cc(N)ccc1S(=O)(=O)Nc1ccccc1Cl [4-amino-N-(2-chlorophenyl)-2-methylbenzenesulfonamide] | 206.4 ± 0.5 °C | 11.3 ± 0.335 kcal/mol
Cc1ccc(NS(=O)(=O)c2ccc(N)cc2)cc1Cl [4-amino-N-(3-chloro-4-methylphenyl)benzenesulfonamide] | 204.5 ± 0.5 °C | 10.9 ± 0.311 kcal/mol
Cc1cc(Cl)ccc1NS(=O)(=O)c1ccc(N)cc1 [4-amino-N-(4-chloro-2-methylphenyl)benzenesulfonamide] | 149.6 ± 0.5 °C | 8.8 ± 0.287 kcal/mol
Cc1cc(N)ccc1S(=O)(=O)Nc1ccc(Cl)cc1 [4-amino-N-(4-chlorophenyl)-2-methylbenzenesulfonamide] | 173.4 ± 0.5 °C | 8.53 ± 0.287 kcal/mol
Nc1ccc(S(=O)(=O)Nc2ccc(Cl)cc2)cc1 [4-amino-N-(4-chlorophenyl)benzenesulfonamide] | 194.8 ± 0.5 °C | 5.69 ± 0.263 kcal/mol
CCc1ccc(NS(=O)(=O)c2ccc(N)cc2)cc1 [4-amino-N-(4-ethylphenyl)benzenesulfonamide] | 163.1 ± 0.5 °C | 8.68 ± 0.287 kcal/mol
COc1ccc(NS(=O)(=O)c2ccc(N)cc2)cc1 [4-amino-N-(4-methoxyphenyl)benzenesulfonamide] | 194.2 ± 0.5 °C | 9.23 ± 0.311 kcal/mol
Cc1ccc(Cl)cc1NS(=O)(=O)c1ccc(N)cc1 [4-amino-N-(5-chloro-2-methylphenyl)benzenesulfonamide] | 149.6 ± 0.5 °C | 8.8 ± 0.287 kcal/mol
CNS(=O)(=O)c1ccc(N)cc1 [4-amino-N-methylbenzenesulfonamide] | 109.1 ± 0.5 °C | 4.09 ± 0.263 kcal/mol
O=[N+]([O-])c1ccc(S(=O)(=O)Nc2nccs2)cc1 [4-nitro-N-2-thiazolylbenzenesulfonamide] | 256.6 ± 0.5 °C | 7.6 ± 0.287 kcal/mol
O=S(=O)(Nc1cccc(Cl)c1Cl)c1ccccc1 [N-(2,3-dichlorophenyl)benzenesulfonamide] | 114.1 ± 0.5 °C | 6.5 ± 0.263 kcal/mol
O=S(=O)(Nc1ccccc1Cl)c1ccccc1 [N-(2-chlorophenyl)benzenesulfonamide] | 125.1 ± 0.5 °C | 8.01 ± 0.287 kcal/mol
O=[N+]([O-])c1ccccc1NS(=O)(=O)c1ccccc1 [N-(2-nitrophenyl)benzenesulfonamide] | 98.7 ± 0.5 °C | 5.33 ± 0.263 kcal/mol
O=S(=O)(Nc1ncccc1Cl)c1ccccc1 [N-(3-chloro-2-pyridinyl)benzenesulfonamide] | 131.0 ± 0.5 °C | 6.72 ± 0.287 kcal/mol
O=S(=O)(Nc1ccc(Cl)cc1)c1ccccc1 [N-(4-chlorophenyl)benzenesulfonamide] | 121.5 ± 0.5 °C | 6.17 ± 0.263 kcal/mol
Cc1ccc(NS(=O)(=O)c2ccc([N+](=O)[O-])cc2)nc1 [N-(5-methylpyridin-2-yl)-4-nitrobenzenesulfonamide] | 161.0 ± 0.5 °C | 10.9 ± 0.311 kcal/mol
CC(=O)Nc1ccncc1NS(=O)(=O)c1ccc([N+](=O)[O-])cc1 [N-[3-[[(4-nitrophenyl)sulfonyl]amino]-4-pyridinyl]-acetamide] | 238.0 ± 0.5 °C | 9.89 ± 0.311 kcal/mol
O=S(=O)(Nc1ccccc1)c1ccccc1 [N-phenylbenzenesulfonamide] | 110.4 ± 0.5 °C | 5.62 ± 0.263 kcal/mol
CCOC(=O)c1ccc(NS(=O)(=O)c2ccccc2)nc1 [ethyl 6-(phenylsulfonamido)nicotinate] | 154.8 ± 0.5 °C | 5.38 ± 0.263 kcal/mol
